Ki data for 33 compounds are collected here from patent US20090099158A1, “TETRAHYDROISOQUINOLINE COMPOUNDS AS MODULATORS OF THE HISTAMINE H3 RECEPTOR” (priority 2007, published 2009).

The term Ki denotes the dissociation constant of the complex between target and ligand, obtained from inhibition or displacement.

The target of the experiment is T1, cloned human H3 receptors (Homo sapiens, UniProt Q9Y5N1).
T1 construct: expressed in transfected cells; host or cells: SK-N-MC cells
T1 sequence (Q9Y5N1 whole entry): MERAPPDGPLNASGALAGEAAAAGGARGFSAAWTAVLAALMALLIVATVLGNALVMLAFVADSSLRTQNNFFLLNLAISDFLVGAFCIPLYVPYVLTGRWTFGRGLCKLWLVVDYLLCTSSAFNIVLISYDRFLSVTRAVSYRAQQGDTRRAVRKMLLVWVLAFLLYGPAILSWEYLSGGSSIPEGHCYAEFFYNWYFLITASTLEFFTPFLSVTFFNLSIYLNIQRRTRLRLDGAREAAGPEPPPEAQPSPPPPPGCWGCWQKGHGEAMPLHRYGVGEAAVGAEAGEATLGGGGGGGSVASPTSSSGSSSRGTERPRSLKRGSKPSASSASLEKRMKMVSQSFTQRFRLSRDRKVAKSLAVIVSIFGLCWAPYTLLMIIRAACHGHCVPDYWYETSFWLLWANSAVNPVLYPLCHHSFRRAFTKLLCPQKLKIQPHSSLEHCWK
As to the kind of experiment: H3 Receptor Binding (Human). The following applies: cloned human H3 receptors stably expressed in SK-N-MC cells; average of the results obtained. How it is done:
Binding of compounds to the cloned human H3 receptors, stably expressed in SK-N-MC cells, was performed as described by Barbier, A. J. et al. (Br. J. Pharmacol. 2004, 143(5), 649-661). Data for compounds tested in this assay are presented in Table 1 as an average of the results obtained.
As to `CC(C)N1CCN(C(=O)c2ccc3c(c2)CCN(C(=O)c2ccc(Cl)c(Cl)c2)C3)CC1` [Example 111, [2-(3,4-Dichloro-benzoyl)-1,2,3,4-tetrahydro-isoquinolin-6-yl]-(4-isopropyl-piperazin-1-yl)-methanone], affinity was put at a Ki of 24 nM.
The compound `COc1ccc(C(=O)N2CCc3cc(C(=O)N4CCN(C5CCC5)CC4)ccc3C2)cc1` [Example 112, (4-Cyclobutyl-piperazin-1-yl)-[2-(4-methoxy-benzoyl)-1,2,3,4-tetrahydro-isoquinolin-6-yl]-methanone] returned a Ki of 20 nM.
`Cc1ccc(C(=O)N2CCc3cc(C(=O)N4CCN(C5CCC5)CC4)ccc3C2)cc1` [Example 113, (4-Cyclobutyl-piperazin-1-yl)-[2-(4-methyl-benzoyl)-1,2,3,4-tetrahydro-isoquinolin-6-yl]-methanone] returned a Ki of 22 nM.
The result for `O=C(c1ccc2c(c1)CCN(C(=O)c1ccc(Cl)c(Cl)c1)C2)N1CCN(C2CCC2)CC1` [Example 114, (4-Cyclobutyl-piperazin-1-yl)-[2-(3,4-dichloro-benzoyl)-1,2,3,4-tetrahydro-isoquinolin-6-yl]-methanone] reads 13 nM.
`O=C(c1ccc2c(c1)CCN(C(=O)c1ccsc1)C2)N1CCN(C2CCC2)CC1` [Example 115, (4-Cyclobutyl-piperazin-1-yl)-[2-(thiophene-3-carbonyl)-1,2,3,4-tetrahydro-isoquinolin-6-yl]-methanone]: the affinity corresponds to a Ki of 11 nM.
The compound `CN(C)c1cccc(C(=O)N2CCc3cc(C(=O)N4CCN(C5CCC5)CC4)ccc3C2)c1` [Example 116, [6-(4-Cyclobutyl-piperazine-1-carbonyl)-3,4-dihydro-1H-isoquinolin-2-yl]-(3-dimethylamino-phenyl)-methanone] gave an inhibition constant (Ki) of 18 nM.
In the case of `CN(C)c1ccc(C(=O)N2CCc3cc(C(=O)N4CCN(C5CCC5)CC4)ccc3C2)cc1` [Example 117, [6-(4-Cyclobutyl-piperazine-1-carbonyl)-3,4-dihydro-1H-isoquinolin-2-yl]-(4-dimethylamino-phenyl)-methanone], the affinity, expressed as Ki, was 13 nM.
Compound `O=C(c1ccc2c(c1)CCN(C(=O)c1ccc(Cl)cc1Cl)C2)N1CCN(C2CCC2)CC1` [Example 118, [6-(4-Cyclobutyl-piperazine-1-carbonyl)-3,4-dihydro-1H-isoquinolin-2-yl]-(2,4-dichloro-phenyl)-methanone] gave a Ki of 8 nM.
On to `O=C(c1ccc2c(c1)CCN(C(=O)c1cccc(Cl)c1)C2)N1CCN(C2CCC2)CC1` [Example 119, (3-Chloro-phenyl)-[6-(4-cyclobutyl-piperazine-1-carbonyl)-3,4-dihydro-1H-isoquinolin-2-yl]-methanone], for which affinity was put at a Ki of 11 nM.
Compound `Cc1cccc(C(=O)N2CCc3cc(C(=O)N4CCN(C5CCC5)CC4)ccc3C2)c1` [Example 120, [6-(4-Cyclobutyl-piperazine-1-carbonyl)-3,4-dihydro-1H-isoquinolin-2-yl]-m-tolyl-methanone] displayed a Ki of 12 nM.
Turning to `O=C(c1ccc2c(c1)CCN(C(=O)c1cccc([N+](=O)[O-])c1)C2)N1CCN(C2CCC2)CC1` [Example 121, [6-(4-Cyclobutyl-piperazine-1-carbonyl)-3,4-dihydro-1H-isoquinolin-2-yl]-(3-nitro-phenyl)-methanone], the Ki worked out at 5 nM.
For the compound `O=C(c1ccc2c(c1)CCN(C(=O)c1ccc([N+](=O)[O-])cc1)C2)N1CCN(C2CCC2)CC1` [Example 122, [6-(4-Cyclobutyl-piperazine-1-carbonyl)-3,4-dihydro-1H-isoquinolin-2-yl]-(4-nitro-phenyl)-methanone], the affinity, expressed as Ki, was 7 nM.
`O=C(c1ccc2c(c1)CCN(C(=O)c1ccc(O)cc1)C2)N1CCN(C2CCC2)CC1` [Example 123, [6-(4-Cyclobutyl-piperazine-1-carbonyl)-3,4-dihydro-1H-isoquinolin-2-yl]-(4-hydroxy-phenyl)-methanone] yielded a Ki of 16 nM.
The result for `O=C(c1ccc2c(c1)CCN(C(=O)c1ccc(F)c(O)c1)C2)N1CCN(C2CCC2)CC1` [Example 124, (4-Cyclobutyl-piperazin-1-yl)-[2-(4-fluoro-3-hydroxy-benzoyl)-1,2,34-tetrahydro-isoquinolin-6-yl]-methanone] reads 24 nM; that for `O=C(c1ccc2c(c1)CCN(C(=O)c1ccc(F)cc1)C2)N1CCN(C2CCC2)CC1` [Example 125, (4-Cyclobutyl-piperazin-1-yl)-[2-(4-fluoro-benzoyl)-1,2,3,4-tetrahydro-isoquinolin-6-yl]-methanone], 17 nM; that for `O=C(c1ccc2c(c1)CCN(C(=O)c1ccc(F)cc1F)C2)N1CCN(C2CCC2)CC1` [Example 126, (4-Cyclobutyl-piperazin-1-yl)-[2-(2,4-difluoro-benzoyl)-1,2,3,4-tetrahydro-isoquinolin-6-yl]-methanone], 9 nM.
Compound `Cc1ccc(C(=O)N2CCc3cc(C(=O)N4CCN(C5CCC5)CC4)ccc3C2)cc1F` [Example 127, (4-Cyclobutyl-piperazin-1-yl)-[2-(3-fluoro-4-methyl-benzoyl)-1,2,3,4-tetrahydro-isoquinolin-6-yl]-methanone] gave a Ki of 27 nM.
Turning to `O=C(c1ccc2c(c1)CCN(C(=O)c1ccc(F)c(Cl)c1)C2)N1CCN(C2CCC2)CC1` [Example 128, [2-(3-Chloro-4-fluoro-benzoyl)-1,2,3,4-tetrahydro-isoquinolin-6-yl]-(4-cyclobutyl-piperazin-1-yl)-methanone], the inhibitory constant (Ki) amounted to 19 nM.
`O=C(Cc1ccccc1)N1CCc2cc(C(=O)N3CCN(C4CCC4)CC3)ccc2C1` [Example 129, 1-[6-(4-Cyclobutyl-piperazine-1-carbonyl)-3,4-dihydro-1H-isoquinolin-2-yl]-2-phenyl-ethanone] had a Ki of 18 nM.
As to `O=C(Cc1ccc(F)cc1)N1CCc2cc(C(=O)N3CCN(C4CCC4)CC3)ccc2C1` [Example 130, 1-[6-(4-Cyclobutyl-piperazine-1-carbonyl)-3,4-dihydro-1H-isoquinolin-2-yl]-2-(4-fluoro-phenyl)-ethanone], the Ki came out at 10 nM.
Regarding `CC(C)(C)c1ccc(C(=O)N2CCc3cc(C(=O)N4CCN(C5CCC5)CC4)ccc3C2)cc1` [Example 131, [2-(4-tert-Butyl-benzoyl)-1,2,3,4-tetrahydro-isoquinolin-6-yl]-(4-cyclobutyl-piperazin-1-yl)-methanone], the affinity corresponds to a Ki of 78 nM.
As to `O=C(c1ccc2c(c1)CCN(C(=O)c1ccc(C3CCCCC3)cc1)C2)N1CCN(C2CCC2)CC1` [Example 132, (4-Cyclobutyl-piperazin-1-yl)-[2-(4-cyclohexyl-benzoyl)-1,2,3,4-tetrahydro-isoquinolin-6-yl]-methanone], the Ki was 100 nM.
The result for `O=C(c1ccc2c(c1)CCN(C(=O)c1ccc(F)cc1)C2)N1CCCN(C2CCC2)CC1` [Example 134, [6-(4-Cyclobutyl-[1,4]diazepane-1-carbonyl)-3,4-dihydro-1H-isoquinolin-2-yl]-(4-fluoro-phenyl)-methanone] reads 1 nM; that for `O=C(c1ccc2c(c1)CCN(C(=O)C1CCCO1)C2)N1CCCN(C2CCC2)CC1` (stereo not drawn) [Example 138, [6-(4-Cyclobutyl-[1,4]diazepane-1-carbonyl)-3,4-dihydro-1H-isoquinolin-2-yl]-(tetrahydro-furan-2-yl)-methanone], 1 nM; that for `CCCc1ccc(C(=O)N2CCc3cc(C(=O)N4CCCN(C5CCC5)CC4)ccc3C2)cc1` [Example 140, [6-(4-Cyclobutyl-[1,4]diazepane-1-carbonyl)-3,4-dihydro-1H-isoquinolin-2-yl]-(4-propyl-phenyl)-methanone], 2 nM.
The compound `O=C(c1ccc2c(c1)CCN(C(=O)c1ccc(F)c(O)c1)C2)N1CCCN(C2CCC2)CC1` [Example 141, [6-(4-Cyclobutyl-[1,4]diazepane-1-carbonyl)-3,4-dihydro-1H-isoquinolin-2-yl]-(4-fluoro-3-hydroxy-phenyl)-methanone] registered a Ki of 1 nM.
In turn, `O=C(c1ccc2c(c1)CCN(C(=O)c1ccc(Cl)cc1Cl)C2)N1CCCN(C2CCC2)CC1` [Example 143, [6-(4-Cyclobutyl-[1,4]diazepane-1-carbonyl)-3,4-dihydro-1H-isoquinolin-2-yl]-(2,4-dichloro-phenyl)-methanone] yielded a Ki of 1 nM.
For the compound `O=C(c1ccc2c(c1)CCN(C(=O)c1ccc(F)c(Cl)c1)C2)N1CCCN(C2CCC2)CC1` [Example 145, (3-Chloro-4-fluoro-phenyl)-[6-(4-cyclobutyl-[1,4]diazepane-1-carbonyl)-3,4-dihydro-1H-isoquinolin-2-yl]-methanone], the affinity corresponds to a Ki of 1 nM.
Next, `COC1CCCC(C(=O)N2CCc3cc(C(=O)N4CCCN(C5CCC5)CC4)ccc3C2)C1` (stereo not drawn) [Example 146, [6-(4-Cyclobutyl-[1,4]diazepane-1-carbonyl)-3,4-dihydro-1H-isoquinolin-2-yl]-(3-methoxy-cyclohexyl)-methanone]: 1 nM.
In the case of `CO[C@H]1CC[C@H](C(=O)N2CCc3cc(C(=O)N4CCCN(C5CCC5)CC4)ccc3C2)CC1` [Example 147, trans-[6-(4-Cyclobutyl-[1,4]diazepane-1-carbonyl)-3,4-dihydro-1H-isoquinolin-2-yl]-(4-methoxy-cyclohexyl)-methanone], the affinity corresponds to a Ki of 1 nM.
`CO[C@H]1CC[C@@H](C(=O)N2CCc3cc(C(=O)N4CCCN(C5CCC5)CC4)ccc3C2)CC1` [Example 148, cis-[6-(4-Cyclobutyl-[1,4]diazepane-1-carbonyl)-3,4-dihydro-1H-isoquinolin-2-yl]-(4-methoxy-cyclohexyl)-methanone] showed a Ki of 1 nM.
As for `CC(C)N1CCC(C(=O)N2CCc3cc(C(=O)N4CCOCC4)ccc3C2)CC1` [Example 149, [2-(1-Isopropyl-piperidine-4-carbonyl)-1,2,3,4-tetrahydro-isoquinolin-6-yl]-morpholin-4-yl-methanone], affinity was put at a Ki of 109 nM.
In turn, `O=C(C1CCCCC1)N1CCc2cc(C(=O)N3CCC[C@H]3CN3CCCC3)ccc2C1` [Example 150, (S)-Cyclohexyl-[6-(2-Pyrrolidin-1-ylmethyl-pyrrolidine-1-carbonyl)-3,4-dihydro-1H-isoquinolin-2-yl]-methanone] had a Ki of 9 nM.
